Source: patent publication US6436395B1, “Rosellinia subiculata ATCC 74386 and fungus ATCC 74387 for producing sordarin compounds for fungi control” (Merck & Co., Inc., priority 1996, dated 2002)

How the values were obtained:
Format in all cases: in vivo
[1] = tested on: Erysiphe graminis; experiment: Action against Erysiphe graminis on wheat, protectant foliar spray (test a); details: wheat plants, 200 ppm spray 2 hours before infection (protectant), evaluated after 8 days
Description: 1. Action against Erysiphe graminis on wheat. a) After 1 week cultivation, wheat plants are sprayed to run off with a spray mixture (200 ppm active ingredient/20% acetone/0.25% Triton […]). After 2 hours, the treated plants are infected with ascospores shaken from inoculum plants. Fungal attack is evaluated after incubation for 8 days at 22° C. at 50% relative humidity to determine the protection given by the compound.

[2] = tested on: Erysiphe graminis; experiment: Action against Erysiphe graminis on wheat, curative foliar spray (test b); details: wheat plants, 200 ppm spray 24 hours after infection (curative), evaluated after 8 days
Description: 1. Action against Erysiphe graminis on wheat. b) After 1 weeks cultivation, wheat plants are infected with ascospores shaken from inoculum plants. After 24 hours, the wheat plants are sprayed with a spray mixture (200 ppm active ingredient/ 20% acetone/0.25% Triton […]). Fungal attack is evaluated after incubation for 8 days at 22° C. at 50% relative humidity to determine the degree of curative activity provided by the compound.

[3] = tested on: Erysiphe graminis; experiment: Action against Erysiphe graminis on wheat, curative soil drench, systemic (test c); details: wheat plants, 200 ppm soil drench 24 hours after infection (systemic), evaluated after 8 days
Description: 1. Action against Erysiphe graminis on wheat. c) After 1 weeks cultivation, wheat plants are infected with ascospores shaken from inoculum plants. After 24 hours, the soil in which the wheat plants are growing is drenched with the drench mixture (200 ppm active ingredient/20% acetone/0.25% Triton […]). Fungal attack is evaluated after incubation for 8 days at 22° C. at 50% relative humidity to determine the degree of curative activity provided by the compound.

[4] = tested on: Puccinia recondita; experiment: Action against Puccinia recondita on wheat, protectant foliar spray (test a); details: wheat plants, 200 ppm spray 2 hours before infection (protectant), evaluated after 1 day + 7 days
Description: 2. Action against Puccinia recondita on wheat a) After 1 weeks cultivation, wheat plants sprayed to run off with a spray mixture (200 ppm active ingredient/20% acetone/0.25% Triton […]). After 2 hours, the treated plants are infected with a spore. Fungal attack is evaluated after incubation for 1 day at 95-100% relative humidity at 20° C. followed by 7 days at 25° C. at 50% relative humidity to determine the protection given by the compound.

[5] = tested on: Puccinia recondita; experiment: Action against Puccinia recondita on wheat, curative foliar spray (test b); details: wheat plants, 200 ppm spray 24 hours after infection (curative), evaluated after 1 day + 7 days
Description: 2. Action against Puccinia recondita on wheat b) After 1 weeks cultivation, wheat plants are infected with a spore suspension After 24 hours, the infected plants are sprayed to run off with a spray mixture (200 ppm active ingredient/20% acetone/0.25% Triton […]. Fungal attack is evaluated after incubation for 1 day at 95-100% relative humidity at 20° C. followed by 7 days at 25° C. at 50% relative humidity to determine the degree of curative activity provided by the compound.

[6] = tested on: Puccinia recondita; experiment: Action against Puccinia recondita on wheat, curative soil drench, systemic (test c); details: wheat plants, 200 ppm soil drench 24 hours after infection (systemic), evaluated after 1 day + 7 days
Description: 2. Action against Puccinia recondita on wheat c). After 1 weeks cultivation, wheat plants are infected with a spore suspension After 24 hours, the soil in which the wheat plants are growing was drenched with the drench mixture (200 ppm active ingredient/20% acetone/0.25% Triton […]). Fungal attack is evaluated after incubation for 1 day at 95-100% relative humidity at 20° C. followed by 7 days at 25° C. at 50% relative humidity to determine the degree of curative activity provided by the compound.

Measured: control of fungal infection

CO[C@H]1[C@@H](O)[C@H](O)[C@H](OC[C@@]23C[C@@H]4[C@H](C)CC[C@H]4[C@@]4(C=O)CC2C=C(C(C)C)[C@@]34C(=O)O)O[C@@H]1C [sordarin, Sordarin]
100%: all assays above
